# According to US20240327382A1 (ALMAC DISCOVERY LIMITED, priority 2021, published 2024):
# Where a name gives a salt, the structure may show the parent alone.
# Biological target: T1, Full-length USP19 (Homo sapiens, UniProt O94966)
# T1 construct: Full-length USP19 was purchased from Boston Biochem (E-576); purchased Boston Biochem E-576
# T1 sequence (O94966 1-1318): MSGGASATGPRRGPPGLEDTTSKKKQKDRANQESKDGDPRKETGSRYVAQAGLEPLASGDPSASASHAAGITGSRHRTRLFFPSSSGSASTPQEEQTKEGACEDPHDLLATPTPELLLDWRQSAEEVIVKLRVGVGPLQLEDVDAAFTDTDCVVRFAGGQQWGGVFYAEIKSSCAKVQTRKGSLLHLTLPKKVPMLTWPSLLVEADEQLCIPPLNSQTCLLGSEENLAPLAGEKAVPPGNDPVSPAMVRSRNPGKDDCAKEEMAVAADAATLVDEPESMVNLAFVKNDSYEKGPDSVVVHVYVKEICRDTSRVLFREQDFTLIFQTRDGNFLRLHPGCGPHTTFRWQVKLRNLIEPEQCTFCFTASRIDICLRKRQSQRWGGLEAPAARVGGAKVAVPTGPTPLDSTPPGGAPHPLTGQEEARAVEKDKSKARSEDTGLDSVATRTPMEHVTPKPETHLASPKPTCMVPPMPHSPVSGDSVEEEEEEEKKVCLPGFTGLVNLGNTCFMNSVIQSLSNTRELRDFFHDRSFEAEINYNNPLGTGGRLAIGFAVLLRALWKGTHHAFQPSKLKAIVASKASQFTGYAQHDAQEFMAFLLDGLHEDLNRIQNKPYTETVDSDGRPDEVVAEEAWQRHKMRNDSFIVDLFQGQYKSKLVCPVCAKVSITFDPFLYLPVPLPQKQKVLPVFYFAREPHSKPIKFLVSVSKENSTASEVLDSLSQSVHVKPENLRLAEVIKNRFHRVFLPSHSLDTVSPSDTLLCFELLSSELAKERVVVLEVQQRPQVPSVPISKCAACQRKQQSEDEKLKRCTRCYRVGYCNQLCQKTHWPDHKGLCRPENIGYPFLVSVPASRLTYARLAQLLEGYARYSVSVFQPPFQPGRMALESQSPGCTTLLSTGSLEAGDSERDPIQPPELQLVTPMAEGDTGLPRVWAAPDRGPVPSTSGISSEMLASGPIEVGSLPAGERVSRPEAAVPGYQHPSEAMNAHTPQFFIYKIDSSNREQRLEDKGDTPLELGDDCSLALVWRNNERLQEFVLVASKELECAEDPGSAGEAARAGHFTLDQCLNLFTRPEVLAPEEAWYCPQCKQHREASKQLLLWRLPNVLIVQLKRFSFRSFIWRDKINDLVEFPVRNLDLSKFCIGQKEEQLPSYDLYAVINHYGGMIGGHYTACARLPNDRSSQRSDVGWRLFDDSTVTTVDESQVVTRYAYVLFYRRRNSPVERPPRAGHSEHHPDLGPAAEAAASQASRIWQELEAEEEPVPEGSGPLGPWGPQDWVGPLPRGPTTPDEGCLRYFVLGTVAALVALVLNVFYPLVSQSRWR
# Assay: USP19 fluorescence polarisation (FP) assay, Ubiquitin-Lys-TAMRA substrate
# Assay type: biochemical
# Conditions: average of at least two duplicate experiments
# Summary of the method: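 Full-length human USP19 (added at 2.5 nM) was preincubated 30 min at RT with inhibitor (serial dilutions 200 μM to 2 μM) in 50 mM HEPES pH 7.4, 150 mM NaCl, 5 mM DTT, 0.05% BSA, 0.05% CHAPS. Ubiquitin-Lys-TAMRA isopeptide substrate (added at 500 nM) started the reaction, and FP (Ex 530/Em 575 nm) was read every 15 min over 90 min. IC50 came from non-linear regression of signal normalised to no-compound control, averaged over at least two duplicate experiments.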
row,SMILES,IC50
1,"O=C1OCCN1[C@@H]1CCN(C(=O)N2CC[C@@H](Cn3cnc(-c4ccccc4)cc3=O)C3(CCCC3)C2)[C@H](c2cccc(F)c2)C1 [Example 197, 3-((2S,4R)-2-(3-Fluorophenyl)-1-((R)-10-((6-oxo-4-phenylpyrimidin-1(6H)-yl)methyl)-7-azaspiro[4.5]decane-7-carbonyl)piperidin-4-yl)oxazolidin-2-one]",10 to 100 nM
2,"CC(C)(C)OC(=O)CN[C@@H]1CCN(C(=O)N2CC[C@@H](Cn3cnc(-c4ccccc4)cc3=O)C3(CCCC3)C2)[C@H](c2cc(F)ccc2F)C1 [Example 154, tert-Butyl ((2S,4R)-2-(2,5-difluorophenyl)-1-((R)-10-((6-oxo-4-phenylpyrimidin-1(6H)-yl)methyl)-7-azaspiro[4.5]decane-7-carbonyl)piperidin-4-yl)glycinate]",< 10 nM
3,"CN[C@@H]1CCN(C(=O)N2CC[C@@H](Cn3cnc4ccc(F)cc4c3=O)C3(CCCC3)C2)[C@H](c2cccc(F)c2F)C1 [Example 166, 3-(((R)-7-((2S,4R)-2-(2,3-Difluorophenyl)-4-(methylamino)piperidine-1-carbonyl)-7-azaspiro[4.5]decan-10-yl)methyl)-6-fluoroquinazolin-4(3H)-one]",< 10 nM
4,"O=C(N1CC[C@@H](Cn2cnc3ccc(F)cc3c2=O)C2(CCCC2)C1)N1CC[C@@H](N2CCOCC2)C[C@H]1c1ccccc1 [Example 171, 6-Fluoro-3-(((R)-7-((2S,4R)-4-morpholino-2-phenylpiperidine-1-carbonyl)-7-azaspiro[4.5]decan-10-yl)methyl)quinazolin-4(3H)-one hydrochloride]",100 to 1000 nM
5,"N[C@@H]1CCN(C(=O)N2CC[C@@H](Cn3cnc(-c4ccccc4)cc3=O)C3(CCCC3)C2)[C@H](c2cc(F)ccc2F)C1 [Example 86, 3-(((R)-7-((2S,4R)-4-amino-2-(2,5-difluorophenyl)piperidine-1-carbonyl)-7-azaspiro[4.5]decan-10-yl)methyl)-6-phenylpyrimidin-4(3H)-one]",< 10 nM
6,"CN[C@@H]1CCN(C(=O)N2CC[C@@H](Cn3cnc(-c4ccccc4)cc3=O)C3(CCCC3)C2)[C@H](c2cccc(F)c2)C1 [Example 63, 3-(((R)-7-((2S,4R)-2-(3-Fluorophenyl)-4-(methylamino)piperidine-1-carbonyl)-7-azaspiro[4.5]decan-10-yl)methyl)-6-phenylpyrimidin-4(3H)-one]",< 10 nM
7,"O=C(N1CC[C@@H](Cn2cnc(-c3ccccc3)cc2=O)C2(CCCC2)C1)N1CC[C@@H](NCc2ncccn2)C[C@H]1c1cc(F)ccc1F [Example 169, 3-(((R)-7-((2S,4R)-2-(2,5-Difluorophenyl)-4-((pyrimidin-2-ylmethyl)amino)piperidine-1-carbonyl)-7-azaspiro[4.5]decan-10-yl)methyl)-6-phenylpyrimidin-4(3H)-one]",< 10 nM
8,"O=C(N1CCC(Cn2cnc(-c3ccccc3)cc2=O)C2(CCCC2)C1)N1CCNC[C@H]1c1cc(F)cc(F)c1 (stereo partly drawn) [Example 11, 3-((7-((R)-2-(3,5-Difluorophenyl)piperazine-1-carbonyl)-7-azaspiro[4.5]decan-10-yl)methyl)-6-phenylpyrimidin-4(3H)-one]",< 10 nM
9,"CN[C@@H]1CCN(C(=O)N2CC[C@@H](Cn3cnc(-c4ccccc4C)cc3=O)C3(CCCC3)C2)[C@H](c2cc(F)ccc2F)C1 [Example 114, 3-(((R)-7-((2S,4R)-2-(2,5-Difluorophenyl)-4-(methylamino)piperidine-1-carbonyl)-7-azaspiro[4.5]decan-10-yl)methyl)-6-(o-tolyl)pyrimidin-4(3H)-one]",< 10 nM
10,"N[C@@H]1CCN(C(=O)N2CCC(Cn3cnc4cc(F)c(F)cc4c3=O)C3(CCCC3)C2)[C@H](c2ccccc2)C1 (stereo partly drawn) [Example 37, 3-((7-((2S,4R)-4-Amino-2-phenylpiperidine-1-carbonyl)-7-azaspiro[4.5]decan-10-yl)methyl)-6,7-difluoroquinazolin-4(3H)-one]",< 10 nM
11,"CN[C@@H]1CCN(C(=O)N2CC[C@@H](Cn3cnc(-c4ccccc4F)cc3=O)C3(CCCC3)C2)[C@H](c2cc(F)cc(F)c2)C1 [Example 143, 3-(((R)-7-((2S,4R)-2-(3,5-Difluorophenyl)-4-(methylamino)piperidine-1-carbonyl)-7-azaspiro[4.5]decan-10-yl)methyl)-6-(2-fluorophenyl)pyrimidin-4(3H)-one]",< 10 nM

# Next, values leading:
row,IC50,SMILES
1,< 10 nM,"O=C(N1CC[C@@H](Cn2cnc(-c3ccccc3)cc2=O)C2(CCCC2)C1)N1CC[C@@H](NCc2ccc(F)cn2)C[C@H]1c1ccccc1 [Example 148, 3-(((R)-7-((2S,4R)-4-(((5-Fluoropyridin-2-yl)methyl)amino)-2-phenylpiperidine-1-carbonyl)-7-azaspiro[4.5]decan-10-yl)methyl)-6-phenylpyrimidin-4(3H)-one]"
2,100 to 1000 nM,"O=C(O)[C@@H]1CCN(C(=O)N2CC[C@@H](Cn3cnc(-c4ccccc4)cc3=O)C3(CCCC3)C2)[C@H](c2ccccc2)C1 [Example 175, (2S,4R)-1-((R)-10-((6-oxo-4-phenylpyrimidin-1(6H)-yl)methyl)-7-azaspiro[4.5]decane-7-carbonyl)-2-phenylpiperidine-4-carboxylic acid]"
3,< 10 nM,"CN[C@@H]1CCN(C(=O)N2CC[C@@H](Cn3ccc(-c4ccccc4)cc3=O)C3(CCCC3)C2)[C@H](c2cc(F)cc(F)c2)C1 [Example 121, 1-(((R)-7-((2S,4R)-2-(3,5-Difluorophenyl)-4-(methylamino)piperidine-1-carbonyl)-7-azaspiro[4.5]decan-10-yl)methyl)-4-phenylpyridin-2(1H)-one]"
4,< 10 nM,"CC1(c2cc(=O)n(CC3CCN(C(=O)N4CC[C@@H](N)C[C@H]4c4ccccc4)CC34CCCC4)cn2)CC1 (stereo partly drawn) [Example 36, 3-((7-((2S,4R)-4-Amino-2-phenylpiperidine-1-carbonyl)-7-azaspiro[4.5]decan-10-yl)methyl)-6-(1-methylcyclopropyl) pyrimidin-4(3H)-one]"
5,< 10 nM,"CN[C@@H]1CCN(C(=O)N2CC[C@@H](Cn3ccc(-c4ccccc4)cc3=O)C3(CCCC3)C2)[C@H](c2cccc(F)c2)C1 [Example 64, 1-(((R)-7-((2S,4R)-2-(3-Fluorophenyl)-4-(methylamino)piperidine-1-carbonyl)-7-azaspiro[4.5]decan-10-yl)methyl)-4-phenylpyridin-2(1H)-one]"
6,< 10 nM,"CCN[C@@H]1CCN(C(=O)N2CC[C@@H](Cn3cnc(-c4ccccc4)cc3=O)C3(CCCC3)C2)[C@H](c2ccccc2)C1 [Example 62, 3-(((R)-7-((2S,4R)-4-(Ethylamino)-2-phenylpiperidine-1-carbonyl)-7-azaspiro[4.5]decan-10-yl)methyl)-6-phenylpyrimidin-4(3H)-one]"
7,< 10 nM,"CCN[C@@H]1CCN(C(=O)N2CC[C@@H](Cn3ccc(-c4ccccc4)cc3=O)C3(CCCC3)C2)[C@H](c2cc(F)ccc2F)C1 [Example 180, 1-(((R)-7-((2S,4R)-2-(2,5-Difluorophenyl)-4-(ethylamino)piperidine-1-carbonyl)-7-azaspiro[4.5]decan-10-yl)methyl)-4-phenylpyridin-2(1H)-one]"
8,< 10 nM,"CO[C@@]1(Cn2ccc(-c3ccccc3)cc2=O)CCN(C(=O)N2CC[C@@H](N)C[C@H]2c2ccccc2)CC12CCCC2 [Example 73, 1-(((S)-7-((2S,4R)-4-Amino-2-phenylpiperidine-1-carbonyl)-10-methoxy-7-azaspiro[4.5]decan-10-yl)methyl)-4-phenylpyridin-2(1H)-one]"
9,100 to 1000 nM,"C[C@@]1(O)CCN(C(=O)N2CC[C@@H](Cn3ccc(-c4ccccc4)cc3=O)C3(CCCC3)C2)[C@H](c2ccccc2)C1 [Example 52, 1-(((R)-7-((2S,4R)-4-Hydroxy-4-methyl-2-phenylpiperidine-1-carbonyl)-7-azaspiro[4.5]decan-10-yl)methyl)-4-phenylpyridin-2(1H)-one]"
